A short description of data set [1]: Stability of WX-671 hydrogen sulfate (stirring in water/acetone; storage as solid). It is filed as physicochemical. As to the method:
5 g of hydrogen sulfate were stirred in 25 ml of water/acetone (80/20) for 7 days, filtered and dried at room temperature for 60 h. […] After stirring, no increase in the content of organic contaminations was found (determination by HPLC).
After storage as a solid substance at 90° C. for 1 week, <1.5% organic contaminations were found (determination by HPLC).

Data set [2] can be described thus: Solubility of WX-671 hydrogen sulfate in water. The following applies: 25° C., calculated for the base. It counts as physicochemical. The source says:
The purity was ≧98% (area % after HPLC).

A further data set concerns BN-472 breast cancer. Nature of the data set: Breast cancer model BN-472, tumor growth and metastasis in the rat (WX-683). It is filed as in vivo. The conditions noted are these: BN-472 rat. The source says: BN-472 breast cancer fragments of approximately 20 mm in diameter were taken from a female donor animal. The tumor was excised, separated from the adhering connective tissue, rinsed with saline, and resuspended in HAM-F12 cell culture medium (Invitrogen BV, Breda, Netherlands), supplemented with 10% fetal calf serum (Hi Clone, Greiner BV, Alphen a/d Rijn, Netherlands). The tumor cortex was sliced into cubes of about 2 mm side length and implanted orthotopically under the mammary fat pad of the 4th right nipple of 7 to 9-weeks old recipient female BN rats. Of the grafted tumors, over 95% became palpable within 3 days, and metastasis to the lungs were detected within 2 to 4 weeks.
Shortly before starting the WX-683 treatment on day 3 after tumor transplantation, all rats were individually weighed and the size of the individual tumor measured as the product of the two largest perpendicular diameters. They were then assorted into groups consisting of 18 rats. The rats were pre-selected such that all treatment groups had similar average body weights and tumor size distributions at the start of the treatment. Control rats received 800 μl vehicle (0.01 N HCl) p.o. WX-683 was dissolved in vehicle at the appropriate concentrations and administered in a volume of 800 μl at dosages of 0.3 and 3 mg/kg by oral gavage once a day. The duration of WX-683 treatment ranged from 24 to 25 days, depending whether the tumor size exceeded the maximum tolerable burden. At the end of the treatment period, the rats were sacrificed, their tumors harvested, separated from the adhering connective tissue and the total tumor weight of every rat was determined. To assess the number of lung metastases, the lungs were fixed in Bouin's solution for at least 24 h. Subsequently the number of lung metastases were determined by counting the yellowish-white macroscopic foci on the lung surface (FIG. 7). This study was approved by the Independent Institutional Animal Care and Use Committee (DEC-Consult), Rotterdam, Netherlands, permit no: Erasmus MC OZP 136-03-01, issued on 01.03.2003.

Data set [3] deals with CA20948 rat pancreatic tumor. Nature of the data set: Pancreatic adenocarcinoma model CA20948. The following applies: WX-UK1 0.3 mg/kg intraperitoneal, 3 weeks, vehicle 30.7%.
The next data set relates to BN472 breast cancer. Nature of the data set: Breast cancer model BN472, tumor growth and metastasizing in rats (WX-671). The following applies: WX-UK1 i.p. 1 mg/kg daily, 30 days, BN472 rat mammary tumor model.

The source of these data is patent publication US7608623B2, “Hydroxyamidine and hydroxyguanidine compounds as urokinase inhibitors” (Wilex AG, priority 2003, dated 2009).

With `CCOC(=O)N1CCN(C(=O)[C@H](Cc2cccc(/C(N)=N\O)c2)NS(=O)(=O)c2c(C(C)C)cc(C(C)C)cc2C(C)C)CC1.O=S(=O)(O)O` [WX-671 hydrogen sulfate], the “increase in content of organic contaminations (HPLC)” value in data set [1] (after stirring in water/acetone (80/20) for 7 days) was “no increase”. In addition, in data set [1] (stirred in water/acetone (80/20) for 7 days), the “stability of the salt to dissociation (stoichiometry)” value is listed as “stable to dissociation”. Further, the “organic contaminations (HPLC)” value in data set [1] (storage as solid at 90° C. for 1 week) was less than 1.5%. Further, the solubility in water in data set [2] is 1172.5 µg/mL.

As for `CCOC(=O)N1CCN(C(=O)[C@H](Cc2cccc(NC(=N)NO)c2)NS(=O)(=O)c2c(C(C)C)cc(C(C)C)cc2C(C)C)CC1` [WX-683, N-α-(2,4,6-triisopropylphenylsulfonyl)-3-hydroxyguanidino-(L)-phenylalanine-4-ethoxycarbonylpiperazide], the “reduction of median number of lung metastases” value turned out to be 18% in the data set on BN-472 breast cancer (oral 0.3 mg/kg/day) and 54% in the data set on BN-472 breast cancer (oral 3 mg/kg/day). Moreover, in the data set with BN-472 breast cancer (oral, highest dosage used (3 mg/kg/day)), the “reduction of median primary tumor weight” value came out at 38%.

Consider `CCOC(=O)N1CCN(C(=O)[C@H](Cc2cccc(C(=N)N)c2)NS(=O)(=O)c2c(C(C)C)cc(C(C)C)cc2C(C)C)CC1.Cl` [WX-UK1], for which the “percentage large mets (>2 mm liver lesions of total liver lesions)” value in data set [3] is 13.4%. Moreover, the “reduction of average tumor weights at the end of the treatment compared to the control” value in the data set with BN472 breast cancer was “approx. 5%”.
